Source: patent US20230212215A1, “GLUCOCORTICOID RECEPTOR MODULATORS” (TRUSTEES OF DARTMOUTH COLLEGE, priority 2020, published 2023)

Target: T1, human GR (Homo sapiens, UniProt P04150)
T1 construct: purchased Indigo Biosciences
T1 sequence (P04150 1-777): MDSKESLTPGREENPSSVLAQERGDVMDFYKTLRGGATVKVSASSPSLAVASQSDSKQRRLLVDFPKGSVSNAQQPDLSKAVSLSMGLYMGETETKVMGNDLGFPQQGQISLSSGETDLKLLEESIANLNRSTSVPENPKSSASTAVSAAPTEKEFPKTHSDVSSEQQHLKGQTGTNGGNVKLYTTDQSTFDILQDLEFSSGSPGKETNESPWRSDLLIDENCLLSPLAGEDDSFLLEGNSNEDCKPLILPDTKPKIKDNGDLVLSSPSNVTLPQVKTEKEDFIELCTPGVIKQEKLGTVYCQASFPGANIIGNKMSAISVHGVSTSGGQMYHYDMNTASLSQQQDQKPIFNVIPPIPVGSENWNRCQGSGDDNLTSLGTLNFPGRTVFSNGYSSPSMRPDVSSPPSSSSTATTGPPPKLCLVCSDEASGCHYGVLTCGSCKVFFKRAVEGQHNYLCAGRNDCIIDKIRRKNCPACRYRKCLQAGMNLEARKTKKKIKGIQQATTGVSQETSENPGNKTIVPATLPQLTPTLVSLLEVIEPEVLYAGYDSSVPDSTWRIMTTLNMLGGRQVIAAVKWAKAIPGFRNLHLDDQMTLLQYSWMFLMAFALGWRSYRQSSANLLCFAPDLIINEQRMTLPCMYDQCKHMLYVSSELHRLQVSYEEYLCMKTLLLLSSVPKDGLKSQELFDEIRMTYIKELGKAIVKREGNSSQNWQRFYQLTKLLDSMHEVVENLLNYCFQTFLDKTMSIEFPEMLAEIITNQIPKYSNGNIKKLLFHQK
Experiment: human GR antagonist assay (Indigo Biosciences)
Type: cell-based
Text: The activity of a compound can be determined using various known methods. For example, GR assays can be used. Such GR assays include binding assays using, for example, cells transfected with the human glucocorticoid receptor (NR3C1). Several cell based model systems that allow sensitive detection and monitoring of steroids or other compounds with GR bioactivity are known. Most cell based GR reporter models use transgenic gene constructs that include a glucocorticoid response element (GRE) that controls reporter gene (e.g., lucifersrase) expression. For example, a human GR Reporter Assay System is commercially available from Indigo Biosciecnes. […] The principle application of such an assay product is to quantify functional activities, either agonist or antagonist, that a compound may exert against the human glucocorticoid receptor.
The activity of certain compounds were tested in a human GR antagonist assay (Indigo Biosciences).

IC50 (nM) (Table 1)	EC50 (Table A)	IC50 (text of Example 2)	SMILES	HillSlope (Table 1)
			CC#C[C@]1(O)CC[C@H]2[C@@H]3CCC4=CC(=O)CCC4=C3[C@@H](c3ccc(N(C)C)cc3)C[C@@]21C [Mifepristone, reference compound]	0.8706
No activity	not active	not active	Cc1ncccc1NC(=O)c1ccc2c(c1)CCC1=C3C[C@H](O)C[C@]3(C)CC[C@]12Cc1ccccc1 [Compound A, (9S,13S,16R)-9-benzyl-16-hydroxy-13-methyl-N-(2-methylpyridin-3-yl)-7,9,11,12,13,15,16,17-octahydro-6H-cyclopenta[α]phenanthrene-3-carboxamide]	
